Results taken from patent publication US20250152723A1, “ANTIBODY-DRUG CONJUGATES INVOLVING ERIANIN AND THE FABRICATION METHODS AND APPLICATIONS THEREOF” (Laboratory for Synthetic Chemistry and Chemical Biology …, priority 2023, published 2025).

Assays:
[1] = test system: SK-BR-3 breast cancer cell (HER2+); experiment: In vitro anti-proliferative study (NBB staining, 6 days); type: cell-based; settings: SK-BR-3 (HER2+), 6 days incubation, mean±SD
Method: (§1) Briefly, Different cell lines (1×10^3 cells/well) are seeded in a microtiter plate (96 well) and incubated overnight before the treatment. […] After the media is removed, the cells are fixed with formaldehyde (3%; 50 μL) in PBS and stained with NBB reagent (0.05%, 0.1 M sodium acetate, 9% acetic acid; 50 μL) for overnight. The stained cells in each well are washed thrice gently with deionized water and solubilized in sodium hydroxide solution (50 mM; 100 μL). The cell viability is determined by measuring the absorbance of 620 nm in each well by microplate reader. The experiments are repeated in triplicate. The IC50 values are presented as the mean±standard deviation.

[2] = test system: MCF-10A breast epithelial cell (HER2−); experiment: as above; type: cell-based; settings: MCF-10A (HER2−), 6 days incubation, mean±SD
Method: as §1

[3] = test system: MDA-MB-231 breast cancer cell (HER2−); experiment: as above; type: cell-based; settings: MDA-MB-231 (HER2−), 6 days incubation, mean±SD
Method: as §1

[4] = test system: HER2-positive SK-OV-3 human ovarian cancer xenograft; experiment: Antitumor activity in SK-OV-3 xenograft model; type: in vivo, Female BALB/cAnN-nu (nude) mice; settings: 50 mg/kg intravenous, four doses (day 0, 4, 8, 12), compared to vehicle control
Method: Female BALB/cAnN-nu (nude) mice (5-8 weeks old) are housed in the Laboratory Animal Unit, The University of Hong Kong. The mice are freely access to food and water. SKOV-3 ovarian cancer cells (1×10^7) in PBS (100 μL) are injected into the right flanks of each mouse subcutaneously. […] The mice are treated with intravenous administration of a total of four doses on day 0, 4, 8 and 12. The tumor size and body weight are monitored during the treatment. After 28 days, the mice are sacrificed and the tumor weight is measured.

[5] = test system: SK-OV-3 ovarian cancer cell (HER2+); experiment: In vitro anti-proliferative study (NBB staining, 6 days); type: cell-based, human; settings: SK-OV-3 (HER2+), 6 days incubation, mean±SD
Method: as §1

`COc1ccc(CCc2cc(OC)c(OC)c(OC)c2)cc1O` [Erianin, erianin] gave an IC50 [1] of 24.1 ± 0.1 nM, an IC50 [2] of 25.7 ± 0.2 nM and an IC50 [3] of 21.6 ± 0.2 nM. For the same molecule, the tumor growth suppression [4] was “no effect” and the IC50 [5] was 21.4 ± 0.3 nM.
